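Values below derive from 48-hour exposures of cells grown in 96-well plates, with endpoints linearly interpolated between the two concentrations bracketing the appropriate inhibition level. Abbreviation: GI50, concentration required for 50% inhibition of growth.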 Active and inactive are the calls of the source. No stated cut-off is given here; in the data, active = GI50 up to about 1.1 µM and inactive = higher.
How the values were obtained:
Assay in all cases: inhibition of tumour cell growth, NCI panel, 48 h
CCRF-CEM = test system: CCRF-CEM
COLO 205 = test system: COLO 205
EKVX = test system: EKVX
HCT-15 = test system: HCT-15
HOP-92 = test system: HOP-92
HT-29 = test system: HT-29
KM12 = test system: KM12
LOX IMVI = test system: LOX IMVI
MOLT-4 = test system: MOLT-4
NCI-H23 = test system: NCI-H23
NCI-H460 = test system: NCI-H460
OVCAR-5 = test system: OVCAR-5
OVCAR-8 = test system: OVCAR-8
RXF 393 = test system: RXF 393
SK-MEL-2 = test system: SK-MEL-2
SK-MEL-5 = test system: SK-MEL-5
SNB-19 = test system: SNB-19
SW-620 = test system: SW-620
UACC-257 = test system: UACC-257
MCF7 = test system: MCF7

O=C(NNC(=S)Nc1ccccc1)c1nsc2ccccc12 was tested. Which GI50 (CCRF-CEM) did it give?
The GI50 was 0.36 µM (active).

What about the GI50 (COLO 205) of the same molecule?
The GI50 was 39.7 µM (inactive).

And the GI50 (EKVX)?
The GI50 was 25.2 µM (inactive).

And the GI50 (HCT-15)?
The GI50 was 10.7 µM.

What about the GI50 (HOP-92) of the same molecule?
The GI50 was 20.4 µM (inactive).

What about the GI50 (HT-29) of the same molecule?
Its GI50 is 50 µM (inactive).

And the GI50 (KM12)?
Its GI50 is 30.4 µM (inactive).

And the GI50 (LOX IMVI)?
Its GI50 is 23.7 µM (inactive).

And the GI50 (MOLT-4)?
Its GI50 is 20.7 µM (inactive).

And the GI50 (NCI-H23)?
Its GI50 is 36.6 µM (inactive).

What about the GI50 (NCI-H460) of the same molecule?
Its GI50 is 21.5 µM (inactive).

What about the GI50 (OVCAR-5) of the same molecule?
Its GI50 is 57 µM (inactive).

What about the GI50 (OVCAR-8) of the same molecule?
Its GI50 is 28.6 µM (inactive).

And the GI50 (RXF 393)?
Its GI50 is 40.7 µM (inactive).

What about the GI50 (SK-MEL-2) of the same molecule?
Its GI50 is 19.6 µM (inactive).

What about the GI50 (SK-MEL-5) of the same molecule?
The GI50 was 24.6 µM (inactive).

What about the GI50 (SNB-19) of the same molecule?
Its GI50 is 34.9 µM (inactive).

And the GI50 (SW-620)?
The GI50 was 40.6 µM (inactive).

And the GI50 (UACC-257)?
The GI50 was 33.3 µM (inactive).

What does the source list for C=CCOC1OC(CS(=O)(=O)O)C(O)C(O)C1O (centres undefined)?
GI50 (CCRF-CEM): > 10 µM (inactive); GI50 (COLO 205): > 100 µM (inactive); GI50 (HCT-15): > 100 µM; GI50 (HOP-92): > 100 µM (inactive); GI50 (HT-29): > 100 µM (inactive); GI50 (KM12): > 100 µM (inactive); GI50 (LOX IMVI): > 100 µM (inactive); GI50 (MCF7): > 100 µM (inactive); GI50 (MOLT-4): > 100 µM (inactive); GI50 (NCI-H23): > 100 µM (inactive); GI50 (NCI-H460): > 100 µM (inactive); GI50 (OVCAR-5): > 100 µM (inactive); GI50 (OVCAR-8): > 100 µM (inactive); GI50 (RXF 393): > 100 µM (inactive); GI50 (SK-MEL-2): > 100 µM (inactive); GI50 (SK-MEL-5): > 100 µM (inactive); GI50 (SNB-19): > 100 µM (inactive); GI50 (SW-620): > 100 µM (inactive); GI50 (UACC-257): > 100 µM (inactive)

How did the GI50 (CCRF-CEM) turn out when CSC1SCC2C(=O)N(C)C(C(C)C)C(=O)OCC(NC(=O)c3cnc4ccccc4n3)C(=O)NC(C)C(=O)N(C)C1C(=O)N(C)C(C(C)C)C(=O)OCC(NC(=O)c1cnc3ccccc3n1)C(=O)NC(C)C(=O)N2C (centres undefined) was run?
The GI50 was 0.00925 µM (active).

What about the GI50 (COLO 205) of the same molecule?
Its GI50 is 0.0075 µM (active).

What about the GI50 (EKVX) of the same molecule?
The GI50 was 0.0075 µM (active).

What about the GI50 (HCT-15) of the same molecule?
Its GI50 is 0.0101 µM.

What about the GI50 (HT-29) of the same molecule?
The GI50 was 0.0075 µM (active).

What about the GI50 (KM12) of the same molecule?
Its GI50 is 0.0075 µM (active).

What about the GI50 (MCF7) of the same molecule?
Its GI50 is 0.0075 µM (active).

What about the GI50 (MOLT-4) of the same molecule?
Its GI50 is 0.0075 µM (active).

What about the GI50 (NCI-H460) of the same molecule?
The GI50 was 0.0075 µM (active).

And the GI50 (OVCAR-5)?
Its GI50 is 0.0075 µM (active).

What about the GI50 (OVCAR-8) of the same molecule?
The GI50 was 0.0075 µM (active).

And the GI50 (RXF 393)?
The GI50 was 0.00895 µM (active).

And the GI50 (SK-MEL-2)?
The GI50 was 0.0178 µM (active).

What about the GI50 (SK-MEL-5) of the same molecule?
Its GI50 is 0.0075 µM (active).

What about the GI50 (SNB-19) of the same molecule?
Its GI50 is 0.0075 µM (active).

And the GI50 (SW-620)?
The GI50 was 0.0075 µM (active).

Which results are given for CN(C)C(=O)Oc1c(Br)cc(Br)cc1C(=O)OCc1ccccc1?
GI50 (CCRF-CEM): 19.3 µM (inactive); GI50 (COLO 205): 18.3 µM (inactive); GI50 (EKVX): 35.6 µM (inactive); GI50 (HCT-15): 26.2 µM; GI50 (HOP-92): 16.8 µM (inactive); GI50 (HT-29): 13.5 µM (inactive); GI50 (KM12): 28.7 µM (inactive); GI50 (LOX IMVI): 22.8 µM (inactive); GI50 (MCF7): 26.4 µM (inactive); GI50 (MOLT-4): 17.5 µM (inactive); GI50 (NCI-H23): 30.6 µM (inactive); GI50 (NCI-H460): 21.8 µM (inactive); GI50 (OVCAR-5): 28.3 µM (inactive); GI50 (OVCAR-8): 32.4 µM (inactive); GI50 (RXF 393): 38.4 µM (inactive); GI50 (SK-MEL-2): 27.7 µM (inactive); GI50 (SK-MEL-5): 13.1 µM (inactive); GI50 (SNB-19): 45.5 µM (inactive); GI50 (SW-620): 41.1 µM (inactive); GI50 (UACC-257): 26.5 µM (inactive)

Which results are given for CCN(CC)/[N+]([O-])=N/O?
GI50 (CCRF-CEM): > 100 µM (inactive); GI50 (EKVX): > 100 µM (inactive); GI50 (HCT-15): > 100 µM; GI50 (HOP-92): > 100 µM (inactive); GI50 (HT-29): > 100 µM (inactive); GI50 (KM12): > 100 µM (inactive); GI50 (LOX IMVI): > 100 µM (inactive); GI50 (MOLT-4): > 100 µM (inactive); GI50 (NCI-H23): > 100 µM (inactive); GI50 (NCI-H460): > 100 µM (inactive); GI50 (OVCAR-5): > 100 µM (inactive); GI50 (OVCAR-8): > 100 µM (inactive); GI50 (RXF 393): > 100 µM (inactive); GI50 (SK-MEL-2): > 100 µM (inactive); GI50 (SK-MEL-5): > 100 µM (inactive); GI50 (SNB-19): > 100 µM (inactive); GI50 (SW-620): > 100 µM (inactive); GI50 (UACC-257): > 100 µM (inactive)

Which results are given for O=C(CCCn1cnc([N+](=O)[O-])n1)NCCn1ccnc1[N+](=O)[O-]?
GI50 (CCRF-CEM): > 100 µM (inactive); GI50 (COLO 205): > 100 µM (inactive); GI50 (EKVX): > 100 µM (inactive); GI50 (HCT-15): > 100 µM; GI50 (HOP-92): 61.7 µM (inactive); GI50 (HT-29): > 100 µM (inactive); GI50 (KM12): > 100 µM (inactive); GI50 (LOX IMVI): > 100 µM (inactive); GI50 (MCF7): > 100 µM (inactive); GI50 (MOLT-4): > 100 µM (inactive); GI50 (NCI-H23): > 100 µM (inactive); GI50 (NCI-H460): > 100 µM (inactive); GI50 (OVCAR-5): > 100 µM (inactive); GI50 (RXF 393): > 100 µM (inactive); GI50 (SK-MEL-2): > 100 µM (inactive); GI50 (SK-MEL-5): > 100 µM (inactive); GI50 (SW-620): > 100 µM (inactive); GI50 (UACC-257): > 100 µM (inactive)

Which results are given for COc1cc([C@@H]2c3cc4c(cc3[C@H](O)[C@H]3COC(=O)[C@H]23)OCO4)cc(OC)c1OC [PODOFILOX]?
GI50 (CCRF-CEM): < 0.005 µM (active); GI50 (COLO 205): < 0.005 µM (active); GI50 (HOP-92): 0.227 µM (active); GI50 (HT-29): < 0.005 µM (active); GI50 (KM12): < 0.005 µM (active); GI50 (LOX IMVI): < 0.005 µM (active); GI50 (MCF7): < 0.005 µM (active); GI50 (MOLT-4): < 0.005 µM (active); GI50 (NCI-H23): < 0.005 µM (active); GI50 (OVCAR-5): 0.0375 µM (active); GI50 (OVCAR-8): < 0.005 µM (active); GI50 (SNB-19): < 0.005 µM (active); GI50 (SW-620): < 0.005 µM (active); GI50 (UACC-257): 29.9 µM (inactive)
